# Entries after “also recorded” stand apart in the source; their conditions may differ.
# Key:
# rats = conditions: systemic administration; cited from earlier work
# [1] = in vivo; cited from earlier work
# [2] = Gravimetric Vapour Sorption (GVS); type: physicochemical
# Procedure: Gravimetric Vapour Sorption (GVS) data were collected using the following method: Approximately 10 mg of sample was placed into a wire-mesh vapour sorption balance pan and loaded into an ‘IgaSorp’ vapour sorption balance (Hiden Analytical Instruments). The sample was then dried by maintaining a 0% humidity environment until no further weight change was recorded. Subsequently, the sample was then subjected to a ramping profile from 0-90% RH at 10% RH increments, maintaining the sample at each step until equilibration had been attained (99% step completion). Upon reaching equilibration, the % RH within the apparatus was ramped to the next step and the equilibration procedure repeated. After completion of the sorption cycle, the sample was then dried using the same procedure. The weight change during the sorption/desorption cycles were then monitored, allowing for the hygroscopic nature of the sample to be determined.
# [3] = Stability study, open vial, 40° C./75% RH, 7 and 28 days; type: physicochemical; conditions: for XRPD change on storage: open glass vial covered with tissue
# Procedure: Further evidence of the suitability of the crystalline forms for pharmaceutical development is provided by the stability data disclosed herein. Form 1 of N-[(2,6-difluoro-3-methoxyphenyl)methyl]-3-(methoxymethyl)-1-({4-[(2-oxopyridin-1-yl)methyl]phenyl}methyl)pyrazole-4-carboxamide was stored at 40° C./75% RH in a open glass vial covered with tissue. […] (FIG. 3).
# A sample of Form 1 was placed in an open vial covered with tissue in a dessicator under accelerated stability conditions of 40° C./75% RH. The sample was reanalysed after 7 days and 28 days by XRPD, STA and DSC using the same methods as described above.
# [4] = Stability study, 40° C./75% RH 6 months and 25° C./60% RH 12 months, packed; type: physicochemical
# Procedure: Yet further evidence of the suitability of the crystalline forms for pharmaceutical development is provided by additional stability data disclosed herein. Form 1 of N-[(2,6-difluoro-3-methoxyphenyl)methyl]-3-(methoxymethyl)-1-({4-[(2-oxopyridin-1-yl)methyl]phenyl}methyl)pyrazole-4-carboxamide was stored separately at two conditions of 40° C./75% RH for 6 months and 25° C./60% RH for 12 months packed into double polyethylene bags inside an HDPE bottle sealed with a screw cap closure.
# Further samples of Form 1 were stored separately at two conditions of 40° C./75% RH for 6 months and 25° C./60% RH for 12 months packed into double polyethylene bags inside an HDPE bottle sealed with a screw cap closure. In this stability study X-Ray Powder Diffraction patterns were collected on a PANalytical X'Pert PRO diffractometer using CuKα radiation (45 kV, 40 mA), θ-θ goniometer, focusing mirror (Cu W/Si), divergence slit (½°), soller slits at both incident and diffracted beam (0.04 RAD), fixed mask (4 mm) and a PIXcel detector. The software used for data collection was X′Pert Data Collector, version 2.2f. The instrument was performance checked using a certified Standard Reference Material 640 d, Silicon Powder (NIST). XRPD patterns were acquired under ambient conditions via a transmission foil sample stage (polyimide—Kapton, TF-475, 7.5 μm thickness film). The specimen was examined with approximately 5 mg of the sample examined as dispensed onto the sample stage. The data collection range was 2.994-35.0056° […] with a step size of 0.0263° and a continuous scan speed of 0.202004° s^−1. No change in the XRPD diffractogram was observed after 6 months at 40° C./75% RH or after 12 months at 25° C./60% RH (FIG. 16).
# Further tests on the samples of Form 1 stored at 25° C./60% RH and 40° C./75% RH were carried out as described in the table below.
# Human plasma kallikrein = target: T1, Human plasma kallikrein (Homo sapiens, UniProt P03952); experiment: Determination of the IC50 for plasma kallikrein; type: biochemical; conditions: 25° C., substrate H-DPro-Phe-Arg-AFC; read-out: IC50 (human PKaI)
# T1 construct: purchased Protogen
# T1 sequence (P03952 391-638 limits assumed): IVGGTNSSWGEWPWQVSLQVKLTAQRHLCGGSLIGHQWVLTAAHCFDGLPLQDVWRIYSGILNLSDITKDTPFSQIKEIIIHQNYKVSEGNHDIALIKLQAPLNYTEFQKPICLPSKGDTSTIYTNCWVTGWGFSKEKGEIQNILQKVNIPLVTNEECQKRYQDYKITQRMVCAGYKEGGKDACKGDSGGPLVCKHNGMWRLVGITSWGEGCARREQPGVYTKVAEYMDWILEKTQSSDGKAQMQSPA
# T1 sequence (P03952 20-390 partner limits assumed): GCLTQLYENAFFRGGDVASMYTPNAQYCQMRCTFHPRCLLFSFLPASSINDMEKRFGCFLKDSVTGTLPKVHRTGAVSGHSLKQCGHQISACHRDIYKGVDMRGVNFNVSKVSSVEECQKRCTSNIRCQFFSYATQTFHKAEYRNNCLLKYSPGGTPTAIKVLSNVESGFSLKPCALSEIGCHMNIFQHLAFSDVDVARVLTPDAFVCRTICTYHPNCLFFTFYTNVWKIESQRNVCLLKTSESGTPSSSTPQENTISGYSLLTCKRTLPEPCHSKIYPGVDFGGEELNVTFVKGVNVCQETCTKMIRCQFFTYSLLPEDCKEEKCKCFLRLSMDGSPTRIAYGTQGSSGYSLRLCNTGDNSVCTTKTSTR
# Procedure: Determination of the IC50 for Plasma Kallikrein
# (§1) Plasma kallikrein inhibitory activity in vitro was determined using standard published methods (see e.g. Johansen et al., Int. J. Tiss. Reac. 1986, 8, 185; Shori et al., Biochem. Pharmacol., 1992, 43, 1209; Stürzebecher et al., Biol. Chem. Hoppe-Seyler, 1992, 373, 1025). Human plasma kallikrein (Protogen) was incubated at 25° C. with the fluorogenic substrate H-DPro-Phe-Arg-AFC and various concentrations of the test compound. Residual enzyme activity (initial rate of reaction) was determined by measuring the change in […] at 410 nm and the IC50 value for the test compound was determined.
# Human KLK1 = target: T2, Human KLK1 (Homo sapiens, UniProt P06870); experiment: Determination of the IC50 for KLK1; type: biochemical; conditions: 25° C., substrate H-DVaI-Leu-Arg-AFC
# T2 construct: purchased Callbiochem
# T2 sequence (P06870 25-262): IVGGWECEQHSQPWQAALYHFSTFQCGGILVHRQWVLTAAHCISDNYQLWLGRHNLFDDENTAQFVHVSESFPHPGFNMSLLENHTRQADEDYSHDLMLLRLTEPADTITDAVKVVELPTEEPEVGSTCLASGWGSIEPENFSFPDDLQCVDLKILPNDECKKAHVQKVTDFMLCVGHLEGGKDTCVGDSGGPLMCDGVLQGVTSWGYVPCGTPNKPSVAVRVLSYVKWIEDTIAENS
# Procedure: Determination of the IC50 for KLK1
# as §1, with “KLK1” for “Plasma kallikrein”, “KLK1 (Callbiochem)” for “plasma kallikrein (Protogen)”, “H-DVaI-Leu-Arg-AFC” for “H-DPro-Phe-Arg-AFC”
# Human FXIa = target: T3, Human FXIa (Homo sapiens, UniProt P03951); experiment: Determination of the % inhibition for FXIa; type: biochemical; conditions: 40 μM test compound, 25° C.
# T3 construct: purchased Enzyme Research Laboratories
# T3 sequence (P03951 388-625 limits assumed): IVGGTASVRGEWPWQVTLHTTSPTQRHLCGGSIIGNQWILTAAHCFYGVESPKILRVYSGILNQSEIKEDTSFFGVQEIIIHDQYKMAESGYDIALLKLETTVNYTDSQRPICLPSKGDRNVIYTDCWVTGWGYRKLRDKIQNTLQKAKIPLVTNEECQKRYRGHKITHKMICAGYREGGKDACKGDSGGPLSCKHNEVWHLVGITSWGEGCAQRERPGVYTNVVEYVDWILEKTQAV
# T3 sequence (P03951 19-387 partner limits assumed): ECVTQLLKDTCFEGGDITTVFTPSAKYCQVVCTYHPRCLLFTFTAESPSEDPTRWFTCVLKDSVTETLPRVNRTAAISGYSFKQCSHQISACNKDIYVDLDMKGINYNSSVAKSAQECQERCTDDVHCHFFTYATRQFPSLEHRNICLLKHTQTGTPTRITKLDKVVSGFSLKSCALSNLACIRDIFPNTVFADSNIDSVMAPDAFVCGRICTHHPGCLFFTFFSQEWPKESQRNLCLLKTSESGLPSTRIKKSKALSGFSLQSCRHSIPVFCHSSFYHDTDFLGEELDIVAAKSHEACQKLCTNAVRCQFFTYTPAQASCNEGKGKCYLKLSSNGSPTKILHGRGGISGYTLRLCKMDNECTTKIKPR
# Procedure: Determination of the % Inhibition for FXIa
# as §1, with “FXIa” for “Plasma kallikrein”, “FXIa (Enzyme Research Laboratories)” for “plasma kallikrein (Protogen)”, “Z-Gly-Pro-Arg-AFC” for “H-DPro-Phe-Arg-AFC”, “40 μM” for “various concentrations”, “nm.” for “nm and the IC50 value for the test compound was determined.”
# [5] = Pharmacokinetic study, single oral dose in rats; type: in vivo; conditions: male, Sprague-Dawley; rat, po 11.3 mg/kg, vehicle 10% DMSO/10% cremophor/80% SWFI, plasma
# Procedure: A pharmacokinetic study of N-[(2,6-difluoro-3-methoxyphenyl)methyl]-3-(methoxymethyl)-1-({4-[(2-oxopyridin-1-yl)methyl]phenyl}methyl)pyrazole-4-carboxamide was performed to assess the pharmacokinetics following a single oral dose in male Sprague-Dawley rats. Two rats were given a single po dose of 5 mL/kg of a nominal 2 mg/mL (10 mg/kg) composition of test compound in vehicle. Following dosing, blood samples were collected over a period of 24 hours. Sample times were 5, 15 and 30 minutes then 1, 2, 4, 6, 8 and 12 hours. Following collection, blood samples were centrifuged and the plasma fraction analysed for concentration of test compound by LCMS.
# [6] = system: LPS-induced disseminated intravascular coagulation; conditions: cited from earlier work
# blood = conditions: contacting blood with the substance; cited from earlier work
# [7] = system: intrinsic pathway of coagulation; conditions: in vitro; cited from earlier work
# [8] = in vivo; cited from earlier work; remark: listed apart in the source
# postoperative bleeding = conditions: in vivo; cited from earlier work
compound,measurement,setting,value
N=C(N)c1ccc(CNC(=O)c2cnn(Cc3ccccc3)c2)cc1 [ASP-440],Hematoma expansion,rats,reduced hematoma expansion
same,Oral availability,[1],poor oral availability
"COCc1nn(Cc2ccc(Cn3ccccc3=O)cc2)cc1C(=O)NCc1c(F)ccc(OC)c1F [Form 1, N-[(2,6-difluoro-3-methoxyphenyl)methyl]-3-(methoxymethyl)-1-({4-[(2-oxopyridin-1-yl)methyl]phenyl}methyl)pyrazole-4-carboxamide]",Hygroscopicity by GVS,[2],absence of significant hygroscopicity
same,"%-Wt (dry basis), Adsorption",[2]; 0.007 %-RH,0.000001 %-Wt
same,"%-Wt (dry basis), Adsorption",[2]; 0.008 %-RH,0.001373 %-Wt
same,"%-Wt (dry basis), Desorption",[2]; 0.32 %-RH,0.002745 %-Wt
same,"%-Wt (dry basis), Desorption",[2]; 5 %-RH,0.04664 %-Wt
same,"%-Wt (dry basis), Adsorption",[2]; 10.023 %-RH,0.07544 %-Wt
same,"%-Wt (dry basis), Desorption",[2]; 14.995 %-RH,0.09053 %-Wt
same,"%-Wt (dry basis), Adsorption",[2]; 20.021 %-RH,0.1619 %-Wt
same,"%-Wt (dry basis), Desorption",[2]; 24.99 %-RH,0.1934 %-Wt
same,"%-Wt (dry basis), Adsorption",[2]; 30.013 %-RH,0.2634 %-Wt
same,"%-Wt (dry basis), Desorption",[2]; 34.982 %-RH,0.2908 %-Wt
same,"%-Wt (dry basis), Adsorption",[2]; 40.002 %-RH,0.3978 %-Wt
same,"%-Wt (dry basis), Desorption",[2]; 44.976 %-RH,0.4554 %-Wt
same,"%-Wt (dry basis), Adsorption",[2]; 50.002 %-RH,0.5926 %-Wt
same,"%-Wt (dry basis), Desorption",[2]; 55.026 %-RH,0.6474 %-Wt
same,"%-Wt (dry basis), Adsorption",[2]; 59.996 %-RH,0.8573 %-Wt
same,"%-Wt (dry basis), Desorption",[2]; 65.02 %-RH,1.033 %-Wt
same,"%-Wt (dry basis), Adsorption",[2]; 69.993 %-RH,1.311 %-Wt
same,"%-Wt (dry basis), Desorption",[2]; 75.011 %-RH,1.653 %-Wt
same,"%-Wt (dry basis), Adsorption",[2]; 79.987 %-RH,2.17 %-Wt
same,"%-Wt (dry basis), Desorption",[2]; 85.005 %-RH,2.905 %-Wt
same,"%-Wt (dry basis), Adsorption",[2]; 89.98 %-RH,4.173 %-Wt
same,"%-Wt (dry basis), Desorption",[2]; 89.98 %-RH,4.173 %-Wt
same,Reversibility of hydration (hysteresis) by GVS,[2]; FIG. 4,hydration is reversible (i.e. no significant hysteresis)
same,Increase in water content by GVS,[2]; normal conditions (up to 70% relative humidity),only a relatively gradual increase in water content
same,XRPD change on storage,"[3]; 40° C./75% RH, 7 days",no change
same,XRPD change on storage,"[3]; 40° C./75% RH, 28 days",no change
same,DSC onset temperature,"[3]; 40° C./75% RH, open vial, after 7 days",155.2 °C
same,DSC onset temperature,"[3]; 40° C./75% RH, open vial, after 28 days",155.0 °C
same,DSC onset temperature,[3]; initial timepoint,154.9 °C
same,Appearance,"[4]; 25° C./60% RH, 12 months",As initial
same,Assay (% w/w on an anhydrous basis),"[4]; 25° C./60% RH, 12 months",99.94 % w/w
same,Assay (% w/w “as-is”),"[4]; 25° C./60% RH, 12 months",99.78 % w/w
same,DSC Onset,"[4]; 25° C./60% RH, 12 months",Onset = 156.8 °C
same,DSC Peak,"[4]; 25° C./60% RH, 12 months",Peak = 159.5 °C
same,Purity (% area),"[4]; 25° C./60% RH, 12 months",100 % area
same,Water content (% w/w),"[4]; 25° C./60% RH, 12 months",0.12 % w/w
same,XRPD,"[4]; 25° C./60% RH, 12 months",no change; also recorded: As initial
same,Appearance,"[4]; 40° C./75% RH, 6 months",As initial
same,Assay (% w/w on an anhydrous basis),"[4]; 40° C./75% RH, 6 months",99.31 % w/w
same,Assay (% w/w “as-is”),"[4]; 40° C./75% RH, 6 months",99.1 % w/w
same,DSC Onset,"[4]; 40° C./75% RH, 6 months",Onset = 157.5 °C
same,DSC Peak,"[4]; 40° C./75% RH, 6 months",Peak = 159.8 °C
same,"Impurity Profile by HPLC (% area), Approx RRT 1.16","[4]; 40° C./75% RH, 6 months",0.03 % area
same,Purity (% area),"[4]; 40° C./75% RH, 6 months",99.99 % area
same,Water content (% w/w),"[4]; 40° C./75% RH, 6 months",0.17 % w/w
same,XRPD,"[4]; 40° C./75% RH, 6 months",no change; also recorded: As initial
same,Appearance,"[4]; Initial, 0 months",A white solid. Free from
same,Assay (% w/w on an anhydrous basis),"[4]; Initial, 0 months",100.18 % w/w
same,DSC Onset,"[4]; Initial, 0 months",Onset = 156.3 °C
same,DSC Peak,"[4]; Initial, 0 months",Peak = 158.9 °C
same,"Impurity Profile by HPLC (% area), Approx RRT 1.12","[4]; Initial, 0 months",0.03 % area
same,Purity (% area),"[4]; Initial, 0 months",100 % area
same,Water content (% w/w),"[4]; Initial, 0 months",0.19 % w/w
same,XRPD,"[4]; Initial, 0 months",Conforms to Form 1
same,"All measured parameters including Assay, Water Content, XRPD, DSC, Purity and Impurity Profile","[4]; over the course of the study (6 months 40° C./75% RH, 12 months 25° C./60% RH)",remained unchanged
"COCc1nn(Cc2ccc(Cn3ccccc3=O)cc2)cc1C(=O)NCc1c(F)ccc(OC)c1F [N-[(2,6-difluoro-3-methoxyphenyl)methyl]-3-(methoxymethyl)-1-({4-[(2-oxopyridin-1-yl)methyl]phenyl}methyl)pyrazole-4-carboxamide]",IC50,Human plasma kallikrein,4.5 nM
same,IC50,Human KLK1,> 10000 nM
same,inhibition at 40 µM,Human FXIa,4%
same,Cmax,[5],2890 ng/mL
same,Tmax,[5],1 h
Cl.NCC1CCC(C(=O)N[C@@H](Cc2ccccc2)C(=O)Nc2ccc(CC(=O)O)cc2)CC1 (some centres unmarked) [PKSI-527],Decrease in platelet count and fibrinogen level and increase in FDP level,[6],significantly suppressed
Ecallantide,Activated clotting time (ACT),blood,increase in activated clotting time
same,Contact activated induced coagulation,[7],delay contact activated induced coagulation
same,Anaphylactic reactions,[8],risks of anaphylactic reactions
aprotinin,Postoperative bleeding,postoperative bleeding,may be used to decrease postoperative bleeding

# Source: patent US20200317639A1, “POLYMORPHS OF N-[(2,6-DIFLUORO-3-METHOXYPHENYL)METHYL]-3-(METHOXYMETHYL)-1-({4-[(2-OXOPYRIDIN-1YL)METHYL]PHENYL}METHYL)PYRAZOLE-4-CARBOXAMIDE” (KALVISTA PHARMACEUTICALS LIMITED, priority 2016, published 2020)
